In general, Kd refers to the concentration at which binding is half-saturated. As a reminder, the IC50 is the concentration needed to halve the response being measured.

Data set [1] has as its target Sphingosine 1-phosphate receptor 2 (Homo sapiens, UniProt O95136). Briefly: Binding affinity to S1PR2 (unknown origin) assessed as dissociation constant by surface plasmon resonance analysis. A general note: In SPR one partner is held on a chip, and binding of the other changes the refractive index at the surface.
Data set [2] has as its target Sphingosine 1-phosphate receptor 1 (Homo sapiens, UniProt P21453). Briefly: Binding affinity to S1PR1 (unknown origin) assessed as dissociation constant by surface plasmon resonance analysis.
Data set [3] has as its system HT-29. Briefly: Reversal of 5-FU resistance in human HT-29 cells assessed as reduction in cell viability incubated for 48 hrs in presence of 5-FU by MTT assay. The data set is classed as functional, cell-based. The settings on record: HT-29, 48 h.
The test system of data set [4] is HT-29. Briefly: Antiproliferative activity against human HT-29 cells assessed as reduction in cell viability incubated for 48 hrs by MTT assay. The data set is classed as functional, cell-based. The settings on record: HT-29, 48 h. A general note: Tetrazolium dyes change colour on reduction, which living cells bring about.
The test system of data set [5] is SW620/5-FU. Nature of the data set: Antiproliferative activity against human SW620/5-FU cells assessed as reduction in cell viability incubated for 48 hrs by MTT assay. The data set is classed as functional, cell-based.
For the next data set, the system named is NCM460. Nature of the data set: Cytotoxicity against human NCM460 cells assessed as reduction in cell viability incubated for 48 hrs in presence of 5-FU by MTT assay. It counts as functional, cell-based. The settings on record: NCM460, 48 h.
Data set [6] has as its system SW620/5-FU. Briefly: Reversal of 5-FU resistance in human SW620/5-FU cells assessed as reduction in cell viability incubated for 48 hrs in presence of 5-FU by MTT assay. The data set is classed as functional, cell-based.
Data set [7] concerns the target Sphingosine 1-phosphate receptor 5 (Homo sapiens, UniProt Q9H228). Briefly: Binding affinity to S1PR5 (unknown origin) assessed as dissociation constant by surface plasmon resonance analysis.
Data set [8] has as its target Sphingosine 1-phosphate receptor 3 (Homo sapiens, UniProt Q99500). Briefly: Binding affinity to S1PR3 (unknown origin) assessed as dissociation constant by surface plasmon resonance analysis.
In data set [9] the target is T1, Sphingosine 1-phosphate receptor 4 (Homo sapiens, UniProt O95977).
T1 sequence (O95977 whole entry): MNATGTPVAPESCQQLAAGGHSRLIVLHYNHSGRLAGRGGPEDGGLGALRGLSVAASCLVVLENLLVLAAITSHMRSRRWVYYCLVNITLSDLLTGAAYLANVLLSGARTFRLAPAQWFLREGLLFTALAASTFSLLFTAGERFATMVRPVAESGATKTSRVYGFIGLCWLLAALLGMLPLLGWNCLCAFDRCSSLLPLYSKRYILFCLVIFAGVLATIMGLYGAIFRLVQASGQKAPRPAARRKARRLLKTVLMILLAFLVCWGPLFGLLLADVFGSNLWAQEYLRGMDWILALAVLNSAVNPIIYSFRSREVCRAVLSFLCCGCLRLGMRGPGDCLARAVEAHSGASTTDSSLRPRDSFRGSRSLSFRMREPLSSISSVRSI
Briefly: Binding affinity to S1PR4 (unknown origin) assessed as dissociation constant by surface plasmon resonance analysis.

Data set [10] deals with HCT-116. Briefly: Antiproliferative activity against human HCT-116 cells overexpressing DPD assessed as reduction in cell viability incubated for 48 hrs by MTT assay. It counts as functional, cell-based. The settings on record: HCT-116, 48 h.
A short description of data set [11]: Cytotoxicity against human NCM460 cells assessed as reduction in cell viability incubated for 48 hrs by MTT assay. The data set is classed as toxicity, cell-based.
The subject of data set [12] is HCT-116. Nature of the data set: Reversal of 5-FU resistance in human HCT-116 cells overexpressing DPD assessed as reduction in cell viability incubated for 48 hrs in presence of 5-FU by MTT assay. The data set is classed as functional, cell-based. Particulars: HCT-116, 48 h.

Chain of Sphingosine 1-phosphate receptor 2 (O95136 whole entry): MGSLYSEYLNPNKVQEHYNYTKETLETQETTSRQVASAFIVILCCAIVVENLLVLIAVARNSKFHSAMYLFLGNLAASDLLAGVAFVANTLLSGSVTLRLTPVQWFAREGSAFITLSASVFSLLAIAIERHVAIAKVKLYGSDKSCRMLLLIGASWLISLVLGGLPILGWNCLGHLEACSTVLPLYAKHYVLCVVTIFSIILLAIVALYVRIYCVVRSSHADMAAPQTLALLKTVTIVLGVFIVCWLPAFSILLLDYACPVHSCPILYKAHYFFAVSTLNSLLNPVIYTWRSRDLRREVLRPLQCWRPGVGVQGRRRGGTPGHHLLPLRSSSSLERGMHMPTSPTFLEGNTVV
Chain of Sphingosine 1-phosphate receptor 5 (Q9H228 whole entry): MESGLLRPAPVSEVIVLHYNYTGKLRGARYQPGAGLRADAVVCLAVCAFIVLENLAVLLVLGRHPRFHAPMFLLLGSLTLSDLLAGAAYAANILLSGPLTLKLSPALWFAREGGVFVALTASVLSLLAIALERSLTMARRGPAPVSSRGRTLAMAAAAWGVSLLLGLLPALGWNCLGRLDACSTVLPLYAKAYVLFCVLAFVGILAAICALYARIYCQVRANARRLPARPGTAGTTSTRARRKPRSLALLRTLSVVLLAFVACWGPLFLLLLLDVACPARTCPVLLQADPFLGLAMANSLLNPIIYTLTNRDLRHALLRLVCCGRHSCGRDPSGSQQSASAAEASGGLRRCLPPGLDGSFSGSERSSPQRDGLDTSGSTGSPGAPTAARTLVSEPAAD
Chain of Sphingosine 1-phosphate receptor 1 (P21453 whole entry): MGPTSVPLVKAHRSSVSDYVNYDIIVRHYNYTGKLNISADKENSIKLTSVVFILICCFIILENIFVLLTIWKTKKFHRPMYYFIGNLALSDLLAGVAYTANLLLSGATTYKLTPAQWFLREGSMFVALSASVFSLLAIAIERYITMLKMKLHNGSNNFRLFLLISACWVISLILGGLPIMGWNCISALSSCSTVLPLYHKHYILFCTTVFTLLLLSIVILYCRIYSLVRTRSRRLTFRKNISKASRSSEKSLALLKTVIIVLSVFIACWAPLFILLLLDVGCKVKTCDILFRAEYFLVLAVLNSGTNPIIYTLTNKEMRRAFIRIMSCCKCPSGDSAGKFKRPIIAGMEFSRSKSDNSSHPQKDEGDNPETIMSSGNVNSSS
Chain of Sphingosine 1-phosphate receptor 3 (Q99500 whole entry): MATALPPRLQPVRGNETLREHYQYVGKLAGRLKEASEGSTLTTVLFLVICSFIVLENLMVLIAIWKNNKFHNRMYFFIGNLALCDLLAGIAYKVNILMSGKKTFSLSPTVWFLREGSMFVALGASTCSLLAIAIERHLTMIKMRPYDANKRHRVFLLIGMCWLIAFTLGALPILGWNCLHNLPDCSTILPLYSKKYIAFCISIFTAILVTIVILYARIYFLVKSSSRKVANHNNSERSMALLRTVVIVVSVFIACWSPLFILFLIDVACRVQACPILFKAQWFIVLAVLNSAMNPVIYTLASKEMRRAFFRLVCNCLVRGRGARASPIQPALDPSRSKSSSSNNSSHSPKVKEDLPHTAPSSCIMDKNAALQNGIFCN

Consider `CCC(CC)CN1CCN(C(=O)Nc2cc(Oc3ccc(F)cc3)cc(Oc3ccc(C(=O)NC4CCCCC4)cc3)c2)CC1`, for which the Kd in data set [1] worked out at 12.7 nM.
For `CNC(=O)c1ccc(Oc2cc(NC(=O)N3CCN(c4ccc(C(F)(F)F)cc4)CC3)cc(Oc3ccc(F)cc3)c2)cc1`, the equilibrium dissociation constant (Kd) in data set [1] is above 1000 nM.
Turning to `CCC(CC)CN1CCN(C(=O)Nc2cc(Oc3ccc(F)cc3)cc(Oc3ccc(C(=O)N(C)C)cc3)c2)CC1`, the Kd in data set [1] was 55.6 nM.
For `CCC(CC)CN1CCN(C(=O)Nc2cc(Oc3ccc(F)cc3)cc(Oc3ccc(C(=O)O)cc3)c2)CC1`, the dissociation constant (Kd) was above 100 nM in [2]; above 100 nM in data set [7]; above 100 nM in data set [8]; above 100 nM in data set [9]; 0.88 nM in [1]. The IC50 in the data set with HT-29 [3] was 5130 nM; with HT-29 [4], above 100000 nM; in the data set on SW620/5-FU [5], above 100000 nM; in the data set on NCM460, above 100000 nM; with SW620/5-FU [6], 2150 nM; in the data set on HCT-116 [10] it was above 100000 nM. Also, in the data set with HCT-116 [12], the half-inhibitory concentration (IC50) was found to be 2650 nM. Moreover, in data set [11], the concentration for half-maximal inhibition (IC50) at 48 hrs was above 100000 nM.
Consider `CCC(CC)CN1CCN(C(=O)Nc2cc(Oc3ccc(F)cc3)cc(Oc3ccc(C(=O)OC)cc3)c2)CC1`, for which the Kd in [1] is above 1000 nM.
Turning to `CCNC(=O)c1ccc(Oc2cc(NC(=O)N3CCN(CC(CC)CC)CC3)cc(Oc3ccc(F)cc3)c2)cc1`, the equilibrium dissociation constant (Kd) in data set [1] was 7.23 nM.
On the same count and under the same terms, to `O=C(Nc1cc(Oc2ccc(F)cc2)cc(Oc2ccc(F)cc2)c1)Nc1cc(Cl)nc(Cl)c1` belongs 7.48 nM; to `O=C(Nc1cc(Oc2ccncc2)cc(Oc2ccc(F)cc2)c1)Nc1cc(Cl)nc(Cl)c1`, 8.76 nM; to `CCC(CC)CN1CCN(C(=O)Nc2cc(Oc3ccc(F)cc3)cc(Oc3ccc(C(=O)N4CCOCC4)cc3)c2)CC1`, above 1000 nM.
For `CCC(CC)CC1(O)CCN(C(=O)Nc2cc(Oc3ccncc3)cc(Oc3ccc(F)cc3)c2)CC1`, the Kd in [2] was above 100 nM; in [7], above 100 nM; in [8] it was above 100 nM; in [9], above 100 nM; in data set [1], 0.98 nM. Besides, the IC50 in the data set with HT-29 [3] is 8560 nM; with HT-29 [4], 55400 nM; in the data set with SW620/5-FU [5], 18700 nM; in the data set on NCM460 it was above 100000 nM; in the data set with SW620/5-FU [6] it was 2940 nM; in the data set with HCT-116 [10] it was 49200 nM. The 50% inhibitory concentration (IC50) with HCT-116 [12] amounted to 2160 nM. Also, in [11], the IC50 at 48 hrs is above 100000 nM.
For the compound `C#CCNC(=O)c1ccc(Oc2cc(NC(=O)N3CCN(CC(CC)CC)CC3)cc(Oc3ccc(F)cc3)c2)cc1`, the dissociation constant (Kd) in data set [1] was above 1000 nM.
The same measure, in the same setting: under `CC(C)(C)OC(=O)NC1CCN(C(=O)Nc2cc(Oc3ccncc3)cc(Oc3ccc(F)cc3)c2)CC1` stands above 1000 nM; under `CCC(CC)CC1(O)CCN(C(=O)Nc2cc(Oc3ccc(F)cc3)cc(Oc3ccc(C(N)=O)cc3)c2)CC1`, 198 nM.
Still for that read-out and setting: under `CNC(=O)c1ccc(Oc2cc(NC(=O)N3CCN(c4ccc(OC)cc4)CC3)cc(Oc3ccc(F)cc3)c2)cc1` stands 21.5 nM; under `CCC(CC)CN1CCN(C(=O)Nc2cc(Oc3ccc(F)cc3)cc(Oc3ccc(C(=O)N4CCCCC4)cc3)c2)CC1`, above 1000 nM; under `CNC(=O)c1ccc(Oc2cc(NC(=O)Nc3cc(Cl)nc(Cl)c3)cc(Oc3ccc(F)cc3)c2)cc1`, 9.44 nM.
Take `CCC(CC)CN1CCN(C(=O)Nc2cc(Oc3ccc(F)cc3)cc(Oc3ccc(C(=O)N4CCN(C)CC4)cc3)c2)CC1`: the Kd is above 100 nM in [2]; above 100 nM in [7]; above 100 nM in data set [8]; above 100 nM in data set [9]; 0.69 nM in data set [1]. Further, the IC50 in the data set with HT-29 [3] was 5740 nM; in the data set with HT-29 [4] it was above 100000 nM; in the data set with SW620/5-FU [5] it was above 100000 nM; in the data set with NCM460, above 100000 nM; with SW620/5-FU [6], 3560 nM; with HCT-116 [10], above 100000 nM. Further, the concentration for half-maximal inhibition (IC50) in the data set on HCT-116 [12] was found to be 3960 nM. Further, the IC50 at 48 hrs in data set [11] is above 100000 nM.
As to `CCC(CC)CN1CCN(C(=O)Nc2cc(Oc3ccc(F)cc3)cc(Oc3ccc(C(=O)N4CCCCCC4)cc3)c2)CC1`, the Kd in data set [1] was above 1000 nM.
As to `CCC(CC)CC1(O)CCN(C(=O)Nc2cc(Oc3ccc(F)cc3)cc(Oc3ccc(C(=O)NC)cc3)c2)CC1`, in [1], the equilibrium dissociation constant (Kd) came to 4.15 nM.
As to `CCC(CC)CN1CCN(C(=O)Nc2cc(Oc3ccc(F)cc3)cc(Oc3ccc(C(N)=O)cc3)c2)CC1`, the equilibrium dissociation constant (Kd) in data set [1] stood at 88.5 nM.
On the same count and under the same terms, to `CNC(=O)c1ccc(Oc2cc(NC(=O)N3CCN(Cc4ccc(F)cc4)CC3)cc(Oc3ccc(F)cc3)c2)cc1` belongs above 1000 nM.
Consider `CNC(=O)c1ccc(Oc2cc(NC(=O)N3CCN(C(=O)OC(C)(C)C)CC3)cc(Oc3ccc(F)cc3)c2)cc1`, for which the Kd in data set [1] came to 1.15 nM.
Consider `CNC(=O)c1ccc(Oc2cc(NC(=O)N3CCN(C(=O)c4ccc5ccccc5c4)CC3)cc(Oc3ccc(F)cc3)c2)cc1`, for which, in data set [1], the Kd was 29.2 nM.
For `O=C(Nc1cc(Oc2ccncc2)cc(Oc2ccc(F)cc2)c1)N1CCC(O)(c2ccc(Cl)cc2)CC1`, in data set [1], the Kd worked out at 66.9 nM.
`CNC(=O)c1ccc(Oc2cc(NC(=O)N3CCN(c4ccc(Cl)cc4)CC3)cc(Oc3ccc(F)cc3)c2)cc1`: the Kd in [1] is above 1000 nM.
Regarding `CCC(CC)CNC1CCN(C(=O)Nc2cc(Oc3ccncc3)cc(Oc3ccc(F)cc3)c2)CC1`, the Kd is above 100 nM in data set [2]; above 100 nM in data set [7]; above 100 nM in data set [8]; above 100 nM in [9]; 0.63 nM in [1]. Also, the concentration for half-maximal inhibition (IC50) with HT-29 [3] is above 100000 nM; with HT-29 [4], above 100000 nM; with SW620/5-FU [5], above 100000 nM; with NCM460, above 100000 nM; in the data set with SW620/5-FU [6] it was 3210 nM; with HCT-116 [10], above 100000 nM. For the same compound, the IC50 with HCT-116 [12] worked out at 2930 nM. Further, in data set [11], the half-maximal inhibitory concentration (IC50) at 48 hrs is above 100000 nM.
On to `CCC(CC)CC1(O)CCN(C(=O)Nc2cc(Oc3ccc(F)cc3)cc(Oc3ccc(C(=O)N(C)C)cc3)c2)CC1`, for which the Kd in [1] worked out at 6.62 nM.
Still for that read-out and setting: to `CNC(=O)c1ccc(Oc2cc(NC(=O)N3CCN(C(=O)c4ccc(F)cc4)CC3)cc(Oc3ccc(F)cc3)c2)cc1` belongs 94.3 nM; to `CCC(CC)CN1CC2CN(C(=O)Nc3cc(Oc4ccc(F)cc4)cc(Oc4ccc(C(=O)NC)cc4)c3)CC2C1` (centres undefined), above 1000 nM.
As to `CNC(=O)c1ccc(Oc2cc(NC(=O)N3CCN(C(=O)Cc4cccc(OC)c4)CC3)cc(Oc3ccc(F)cc3)c2)cc1`, the Kd in [1] is above 1000 nM.
The same measure, in the same setting: to `CNC(=O)c1ccc(Oc2cc(NC(=O)N3CCC(O)(c4ccc(Cl)cc4)CC3)cc(Oc3ccc(F)cc3)c2)cc1` belongs 5.16 nM.
Same read-out and setting: to `CCC(CC)CN1CCCN(C(=O)Nc2cc(Oc3ccc(F)cc3)cc(Oc3ccc(C(=O)NC)cc3)c2)CC1` belongs above 1000 nM.
Consider `O=C(Nc1cc(Cl)nc(Cl)c1)Nc1cc(Cl)nc(Cl)c1`, for which, in data set [1], the Kd stood at 13.2 nM.
Regarding `CNC(=O)c1ccc(Oc2cc(NC(=O)N3CCN(c4cccc(OC)c4)CC3)cc(Oc3ccc(F)cc3)c2)cc1`, the Kd in data set [1] is above 1000 nM.
Still for that read-out and setting: under `CNC(=O)c1ccc(Oc2cc(NC(=O)N3CCN(S(=O)(=O)c4ccc(C)cc4)CC3)cc(Oc3ccc(F)cc3)c2)cc1` stands above 1000 nM; under `CCC(CC)CC1(O)CCN(C(=O)Nc2cc(Oc3ccc(F)cc3)cc(Oc3ccc(S(N)(=O)=O)cc3)c2)CC1`, above 1000 nM.

The record behind these values is ChEMBL document CHEMBL5096216, “Rational Design, Synthesis, and Biological Evaluation of Novel S1PR2 Antagonists for Reversing 5-FU-Resistance in Colorectal Cancer” (J Med Chem, 2022).
